Reference: patent US20240156790A1, “COMPOUNDS, COMPOSITIONS, AND METHODS FOR MODULATING FERROPTOSIS AND TREATING EXCITOTOXIC DISORDERS” (THE TRUSTEES OF COLUMBIA UNIVERSITY IN THE CITY OF NEW YORK, priority 2018, published 2024)
“Also recorded” adds a separate entry of the source.

How the values were obtained:
[1] = Plasma stability, rat (Table 1); format: in vitro ADME
[2] = GSH adduct formation (GSH trapping) assay; format: in vitro ADME
Excerpt: We then tested PHB4082 in a GSH adduct formation assay and the Ames test.

[3] = test system: renal tubular ferroptosis; assay: Renal tubular ferroptosis model triggered by ferric nitrilotriacetate (Fe-NTA); format: in vivo, Sprague-Dawley rat
Protocol: Fe(NO3)3·12H2O (Wako, Osaka, Japan) and nitrilotriacetic acid disodium salt (Tokyo Chemical Industry, Tokyo, Japan) were dissolved in deionized water to generate 300 mM and 600 mM solutions, respectively, which were mixed immediately before injections by a ratio of 1:2 (v/v) and then adjusted to pH 7.4 with sodium carbonate to make Fe-NTA solution. PHB4082 was dissolved in 5% DMSO/95% of 65% v/v of 25% w/v 2-hydroxypropyl-β-cyclodextrin (Cayman Chemical) dissolved in 20% EtOH, 30% v/v Poly(ethylene glycol)-400 (Sigma Aldrich 202398), 5% v/v Tween 80 (Fluka 59924) to generate 2 mg/mL solution. The same formulation without PHB4082 was used as vehicle control. For both the solutions ultrasonic disruptor was applied to accelerate the dissolution and they are stored at −20° C. up to one week before injections.
Male wild-type Sprague-Dawley rat (CLEA Japan, Tokyo; n=6 for vehicle control, n=7 for PHB4082 pretreatment) at 4-6 weeks of age were fasted for 12 h prior to intraperitoneal administration of 2 mg/ml PHB4082 solution as pretreatment or with the formulation without PHB4082 as vehicle control. Two hours later all the rats were followed by IP injection of Fe-NTA with a dose of 10 mg iron/kg. The rats were euthanized 24 h after Fe-NTA injection. Fresh kidney tissues were excised and were either fixed in 10% phosphate-buffered formalin or preserved at −80° C. for subsequent analysis. The animal experiment committee of Nagoya University Graduate School of Medicine approved the animal experiments.
Immunostainings were performed by BOND MAX/III (Leica, Wetzlar, Germany) with BOND Polymer Refine Detection (ds9800; Leica) as described. Primary antibodies applied were listed as: anti-4-hydroxy-2-nonenal (HNE) modified proteins antibody (anit-HNEJ-1, in house), anti-transferrin receptor antibody (13-6800, Invitrogen). Quantitation of renal tubular ferroptosis was performed by measuring the necrotized cortical area after H&E staining by identifying the area of necrotized tubules with loss of nuclei. ImageJ was used for quantification of % necrosis area with randomly selected microscopic areas (×20, objective lens; n=9).
We evaluated the ferroptosis protection effect of PHB4082 in a renal tubular ferroptosis model. This model was previously established by Toyokuni lab (Kong et al. 2022; Toyokuni et al. 2022; Akatsuka et al. 2012). A Fenton-reaction based renal carcinogenesis in this model results from repeated intraperitoneal injections of ferric nitrilotriacetate (Fe-NTA). This iron chelate could specifically induce proximal epithelial ferroptosis via single IP administration. […] We chose 24 h after Fe-NTA administration for evaluation of the effects of PHB4082 because this is the peak time for renal tubular necrosis.

[4] = In vivo pharmacokinetic study of TH-4-55-2 in drinking water (four days); design: species or system R6/2 mice; conditions: both sexes, R6/2, mouse, brain, oral, 20-30 mg/kg/day, 4-day treatment, read-out: concentration in brain samples
Protocol: TH-4-55-2 and 42 uM Citric acid were dissolved in 5% DMSO, 5% ethanol, and 90% PBS rendering a final concentration of 0.29 mg/mL Th-4-55-2 in drinking water. The mice drink ˜2 mL water per day, and the resulting dosage was around 20-30 mg/kg/day. C57BL/6 mice at ˜8 weeks of age were treated using drinking water daily for four days. 6 mice were randomly picked, weighed daily, the weight recorded, and the change in body weight compared to the baseline, pre-injection weight was calculated. Any mouse that lost more than 20% of its baseline body weight for three consecutive days was euthanized prior to the completion of the study. Mice were euthanized by CO2 asphyxiation for 3 min after administration. Approximately 0.5 mL of blood was collected via cardiac puncture and immediately put in K3 EDTA microtubes and kept on ice. Brains were harvested, placed in Eppendorf tubes, and frozen on dry ice. […]
Prior to LC-MS analysis, the samples were resuspended in 100 μL methanol and centrifuged for 5 minutes at 14,000×g at 4° C. The supernatant was analyzed via SYNAPT High Resolution Mass Spectrometer.
Samples from animal studies were analyzed via UPLC-MS using a Waters SYNAPT XS Mass spectrometer equipped with an Acquity UPLC. […] All samples were injected twice and the base peak chromatogram was integrated and quantified by a standard curve concurrently ran using MassLynx software and exported. […]

## CCOC(=O)c1ccc(NC2CCCCC2)c(N)c1 [Fer-1, Ferrostatin-1, reference compound]
[1]
  Plasma Stability at six hours (% remaining): 0-4%

## Cc1noc(-c2ccc(NC3CCCCC3)c(NC3CCCCC3)c2)n1 [PHB4082, N1,N2-dicyclohexyl-4-(3-methyl-1,2,4-oxadiazol-5-yl)benzene-1,2-diamine]
[2]
  GSH adduct formation / trapping result: positive in a GSH trapping assay; also recorded: positive in the GSH adduct formation assay
[3]; 24 h after Fe-NTA
  HNE adducts in proximal tubules (HNEJ-1 immunostaining): less amounts of HNE adducts
  TfR1 / TRF1/CD71 signals in proximal tubules: low to moderate signals in the proximal tubules; also recorded: less signals for TRF1/CD71
  necrotized renal tubular area: dramatically reduced the necrotized renal tubular area
[3]; IP pretreatment 2 h before Fe-NTA 10 mg iron/kg
  survival 24 h after Fe-NTA administration: all of those with PHB4082 pretreatment survived 24 hrs

## CCC(CC)Nc1cc(-c2nc(C)no2)cnc1NC1CCCCC1 [TH-4-55-2, N^2-cyclohexyl-5-(3-methyl-1,2,4-oxadiazol-5-yl)-N^3-(pentan-3-yl)pyridine-2,3-diamine]
[4]
  concentration at 4 days: 1.5 to 33 µM
